Measurements from patent US10448639B2, “Fungicidal pyrazoles” (FMC CORPORATION, priority 2009, dated 2019).
Marks after values point to notes of the source that are not given here.

Columns and labels:
[1] = system: Puccinia recondita f. sp. tritici; assay: Test H: wheat leaf rust, curative spray on inoculated wheat seedlings, visual disease rating
Alternaria solani = assay: Test C: tomato early blight, preventive spray on tomato seedlings, visual disease rating
[2] = system: Erysiphe graminis f sp. tritici; assay: Test J: wheat powdery mildew, preventive spray on wheat seedlings, visual disease rating
Text: General protocol for preparing test suspensions for Tests A-J: the test compounds were first dissolved in acetone in an amount equal to 3% of the final volume and then suspended at the desired concentration (in ppm) in acetone and purified water (50/50 mix by volume) containing 250 ppm of the surfactant Trem® 014 (polyhydric alcohol esters). The resulting test suspensions were then used in Tests A-J. Spraying a 200 ppm test suspension to the point of run-off on the test plants was the equivalent of a rate of 500 g/ha. Unless otherwise indicated, the rating values indicate a 200 ppm test suspension was used. (An asterisk “*” next to the rating value indicates a 40 ppm test suspension was used.)
The test suspension was sprayed to the point of run-off on wheat seedlings. The following day the seedlings were inoculated with a spore dust of Erysiphe graminis f sp. tritici, (the causal agent of wheat powdery mildew) and incubated in a growth chamber at 20° C. for 8 days, after which time visual disease ratings were made.

[3] = system: Puccinia recondita f. sp. tritici; assay: Test I: wheat leaf rust, preventive spray on wheat seedlings, visual disease rating
Septoria tritici = assay: Test G: wheat leaf blotch, preventive spray on wheat seedlings, visual disease rating
Botrytis cinerea = assay: Test B: tomato Botrytis, preventive spray on tomato seedlings, visual disease rating
Septoria nodorum = assay: Test F: Septoria glume blotch, preventive spray on wheat seedlings, visual disease rating
[4] = wheat leaf rust, curative, 100 = 100% disease control, 0 = no control relative to controls
[5] = tomato early blight, 100 = 100% disease control, 0 = no control relative to controls
[6] = wheat powdery mildew, 100 = 100% disease control, 0 = no control relative to controls
[7] = wheat leaf rust, preventive, 100 = 100% disease control, 0 = no control relative to controls
[8] = wheat leaf blotch, 100 = 100% disease control, 0 = no control relative to controls
[9] = tomato Botrytis, 100 = 100% disease control, 0 = no control relative to controls
[10] = Septoria glume blotch, 100 = 100% disease control, 0 = no control relative to controls
[11] = wheat leaf rust, curative spray, 100 = 100% disease control, 0 = no control
[12] = tomato early blight, preventive spray, 100 = 100% disease control, 0 = no control
[13] = wheat powdery mildew, preventive spray, 100 = 100% disease control, 0 = no control
[14] = wheat leaf rust, preventive spray, 100 = 100% disease control, 0 = no control
[15] = wheat leaf blotch, preventive spray, 100 = 100% disease control, 0 = no control
[16] = tomato Botrytis, preventive spray, 100 = 100% disease control, 0 = no control
[17] = Septoria glume blotch on wheat, preventive spray, 100 = 100% disease control, 0 = no control

SMILES	Test H rating (% disease control) [1, 4] [%]	Test C rating (% disease control) (Alternaria solani; [5]) [%]	Test J rating (% disease control) [2, 6] [%]	Test I rating (% disease control) [3, 7] [%]	Test G rating (% disease control) (Septoria tritici; [8]) [%]	Test B rating (% disease control) (Botrytis cinerea; [9]) [%]	Test F rating (% disease control) (Septoria nodorum; [10]) [%]	Test H rating (% disease control) [1, 11] [%]	Test C rating (% disease control) (Alternaria solani; [12]) [%]	Test J rating (% disease control) [2, 13] [%]	Test I rating (% disease control) [3, 14] [%]	Test G rating (% disease control) (Septoria tritici; [15]) [%]	Test B rating (% disease control) (Botrytis cinerea; [16]) [%]	Test F rating (% disease control) (Septoria nodorum; [17]) [%]	also measured
Cc1nn(C)c(Nc2cc(F)ccc2F)c1-c1ccc(F)cc1Cl [compound 173]	0	86	100	83	98	100	0								
Cc1nn(C)c(Nc2ccc(C#N)cc2Cl)c1-c1ccc(F)cc1Cl [compound 162]	8	0	94	98	99	99	0								
COc1cccc(Oc2c(-c3c(F)cc(OC)cc3F)c(C)nn2C)c1 [compound 221]	17	94	100	99	100	98	82								
COc1ccc(Nc2c(-c3c(F)cccc3F)c(C)nn2C)c(F)c1 [compound 180]	0	99	100	68	98	100	0								
COc1ccc(-c2c(C)nn(C)c2Nc2c(F)ccc(F)c2F)c(Cl)c1 [compound 174]	0	99	99	97	96	100	0								
Cc1nn(C)c(Nc2cc(F)ccc2F)c1-c1c(F)cc(C#N)cc1F [compound 137]								8	97	100	100	99	96	78	
Cc1nn(C)c(Oc2ccc(Cl)cc2)c1-c1c(F)cc(F)cc1F [compound 27]								0	88	87	25	95	99	0	
Cc1nn(C)c(Nc2cccc(F)c2F)c1-c1c(F)cccc1F [compound 198]	0	68	97	94	100	97	0								
Cc1nn(C)c(Oc2ccc(Cl)c(C#N)c2)c1-c1c(F)cc(F)cc1F [compound 224]	17	51	100	91	100	99	0								
COc1cc(F)c(-c2c(C)nn(C)c2Nc2ccc(C)cn2)c(F)c1 [compound 66]								6	99	99	100	100	100	0	
COc1cc(F)c(-c2c(C)nn(C)c2Oc2ccc(Cl)c(OC)c2)c(F)c1 [compound 211]	0	0	96	17	99	77	0								
COc1cc(F)c(-c2c(C)nn(C)c2Nc2ccc(Cl)nc2)c(F)c1 [compound 34]															Test H rating (% disease control), value marked * ([1]; wheat leaf rust, curative spray, rating marked with asterisk (different test condition, key not given)): 0* %; Test C rating (% disease control), value marked * (Alternaria solani; tomato early blight, preventive spray, rating marked with asterisk (different test condition, key not given)): 97* %; Test J rating (% disease control), value marked * ([2]; wheat powdery mildew, preventive spray, rating marked with asterisk (different test condition, key not given)): 0* %; Test I rating (% disease control), value marked * ([3]; wheat leaf rust, preventive spray, rating marked with asterisk (different test condition, key not given)): 76* %; Test G rating (% disease control), value marked * (Septoria tritici; wheat leaf blotch, preventive spray, rating marked with asterisk (different test condition, key not given)): 96* %; Test B rating (% disease control), value marked * (Botrytis cinerea; tomato Botrytis, preventive spray, rating marked with asterisk (different test condition, key not given)): 100* %; Test F rating (% disease control), value marked * (Septoria nodorum; Septoria glume blotch, preventive spray, rating marked with asterisk (different test condition, key not given)): 0* %
COc1ccc(Nc2c(-c3ccc(F)cc3Br)c(C)nn2C)c(Cl)c1 [compound 324]															Test H disease control rating ([1]; wheat leaf rust, sprayed after inoculation, 100 = 100% disease control, 0 = no disease control relative to controls): 63%; Test C disease control rating (Alternaria solani; tomato early blight, 100 = 100% disease control, 0 = no disease control relative to controls): 83%; Test J disease control rating ([2]; wheat powdery mildew, sprayed the day before inoculation, 100 = 100% disease control, 0 = no disease control relative to controls): 99%; Test I disease control rating ([3]; wheat leaf rust, sprayed the day before inoculation, 100 = 100% disease control, 0 = no disease control relative to controls): 99%; Test G disease control rating (Septoria tritici; wheat leaf blotch, sprayed the day before inoculation, 100 = 100% disease control, 0 = no disease control relative to controls): 100%; Test B disease control rating (Botrytis cinerea; tomato Botrytis, 100 = 100% disease control, 0 = no disease control relative to controls): 99%; Test F disease control rating (Septoria nodorum; Septoria glume blotch on wheat, 100 = 100% disease control, 0 = no disease control relative to controls): 0%
Cc1nn(C)c(Oc2c(F)cc(C#N)cc2F)c1-c1ccccc1Br [compound 272]	0	97	99	99	99	100	99								
COc1cc(F)c(-c2c(C)nn(C)c2Oc2cccc(C)c2)c(F)c1 [compound 220]	40	97	100	99	98	98	40								
Cc1nn(C)c(Nc2ccc(F)cc2)c1-c1ccc(F)cc1F [compound 194]	0	86	99	91	99	97	0								
Cc1nn(C)c(Oc2ccc([N+](=O)[O-])cc2Cl)c1-c1c(F)cc(F)cc1F [compound 32]								0	0	97	99	96	99	0	
COc1cc(F)c(Nc2c(-c3ccc(F)cc3F)c(C)nn2C)c(F)c1 [compound 42]								0	0	82	94	93	100	0	
COc1ccc(Nc2c(-c3c(F)cc(F)cc3F)c(C)nn2C)cn1 [compound 94]								0	70	0	9	98	99	29	
COc1cc(F)c(-c2c(C)nn(C)c2Nc2c(F)cc(F)cc2F)c(F)c1 [Compound 24, 4-(2,6-difluoro-4-methoxyphenyl)-1,3-dimethyl-N-(2,4,6-trifluorophenyl)-1H-pyrazol-5-amine]															pest or weed control at 200 µg/mL ([1]; 144 h, read-out: Test H rating (% disease control)): 9%; pest or weed control at 200 µg/mL (Alternaria solani; Alternaria solani, in Solanum lycopersicum, 168 h, read-out: Test C rating (% disease control)): 100%; pest or weed control at 200 µg/mL ([2]; Blumeria graminis, in Triticum aestivum, 192 h, read-out: Test J rating (% disease control)): 100%; pest or weed control at 200 µg/mL ([3]; 192 h, read-out: Test I rating (% disease control)): 97%; pest or weed control at 200 µg/mL (Septoria tritici; Zymoseptoria tritici, in Triticum aestivum, 504 h, read-out: Test G rating (% disease control)): 94%; pest or weed control at 200 µg/mL (Botrytis cinerea; Botrytis cinerea, in Solanum lycopersicum, 120 h, read-out: Test B rating (% disease control)): 98%; pest or weed control at 200 µg/mL (Septoria nodorum; Parastagonospora nodorum, in Triticum aestivum, 192 h, read-out: Test F rating (% disease control)): 0%
